Measurements as given in PMC8899516, “Structure-Activity Relationship Studies of 4-((4-(2-fluorophenyl)piperazin-1-yl)methyl)-6-imino-N-(naphthalen-2-yl)-1,3,5-triazin-2-amine (FPMINT) Analogues as Inhibitors of Human Equilibrative Nucleoside Transporters” (Frontiers in Pharmacology, 2022).

Target: T1, ENT2 (Homo sapiens, UniProt Q14542)
T1 construct: expressed in transfected cells
T1 sequence (Q14542 1-456): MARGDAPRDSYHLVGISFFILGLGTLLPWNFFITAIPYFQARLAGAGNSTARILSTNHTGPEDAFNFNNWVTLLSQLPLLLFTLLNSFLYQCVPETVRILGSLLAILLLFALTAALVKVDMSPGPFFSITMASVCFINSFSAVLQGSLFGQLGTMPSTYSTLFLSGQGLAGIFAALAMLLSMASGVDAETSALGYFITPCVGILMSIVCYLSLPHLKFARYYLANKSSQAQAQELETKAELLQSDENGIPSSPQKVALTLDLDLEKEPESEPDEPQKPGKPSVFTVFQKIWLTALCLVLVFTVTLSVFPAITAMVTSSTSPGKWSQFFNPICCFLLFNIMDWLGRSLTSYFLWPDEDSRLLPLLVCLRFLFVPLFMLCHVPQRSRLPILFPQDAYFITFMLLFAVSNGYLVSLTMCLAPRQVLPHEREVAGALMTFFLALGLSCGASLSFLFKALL
Assay: Kinetic study of [3H]uridine uptake in PK15NTD/ENT2 cells
Assay type: cell-based
Description: Nucleoside transporter-deficient porcine kidney fibroblast cells (PK15NTD) stably transfected with cloned human ENT1 or ENT2 ([Ward et al., 2000]) were used as the in vitro models. The cells were cultured in Dulbecco’s Modified Eagle’s Medium (DMEM) supplemented with 10% (v/v) foetal bovine serum, 0.5 mg/ml geneticin, 100 units/ml penicillin, 100 μg/ml streptomycin and 0.25 μg/ml of amphotericin B at 37°C in 5% CO2/95% air.
Confluent monolayers of PK15NTD/ENT1 and PK15NTD/ENT2 cells in 24-well plates were washed thrice with HEPES-buffered Ringer’s solution containing (mM): 135 NaCl, 10 glucose, 5 KCl, 5 HEPES, 3.33 NaH2PO4, 1.0 CaCl2, 1.0 MgCl2, 0.83 Na2HPO4; pH 7.4. The cells were incubated with different concentrations of FPMINT analogues (from 10 nM to 100 μM) containing [^3H]uridine (2 μCi/ml, 1 μM) for 1 min. Passive uridine uptake was determined by incubating the cells in HEPES-buffered Ringer’s solution containing [^3H]uridine in the presence of 0.5 mM NBMPR. The cells were rapidly washed five times with ice-cold phosphate-buffered saline (PBS). After air-drying, the cells were solubilised by overnight incubation in 500 μl of 5% Triton-X100. Next, 300 μl of the cell lysates were mixed with 2 ml of scintillation liquid. The radioactivity of each sample was quantified by a scintillation counter. The protein content in each well was determined spectrophotometrically using a commercial bicinchoninic acid assay (Pierce Biochemicals, Rockford, IL). Uptake values were expressed as picomoles of [^3H]uridine per milligram of cellular protein per minute.
All data were analysed by GraphPad Prism software (San Diego, CA, United States). Data are expressed as mean ± standard error (SE) of three experiments performed in triplicate. The IC50 values were determined from the dose-response curves fitted with a logistic function. For the kinetic study of [^3H]uridine uptake, apparent K m and V max values were determined from the Michaelis-Menten equation, and K i was determined from the X-intercept of linear regression. Analysis of variance and Student’s t-test were performed for multiple and paired variables, respectively. p values of <0.05 were considered to be statistically significant.
Compound 3c was selected for further investigation. The kinetic study of [^3H]uridine transport was performed by measuring the concentration-dependent uptake of [^3H]uridine. This study could provide clue about the mode of action of compound 3c. The uptake of [^3H]uridine by ENT1 and ENT2 was saturable and conformed to Michaelis-Menten kinetics. Compound 3c decreased the V max of ENT1 but had no effect on K m . […] The slopes of the linear 1/V versus 1/[S] plots increased with the concentration of compound 3c (Figure 4B).
FIGURE 4 Competitive inhibition of ENT1 and ENT2 by compound 3c. Kinetic study of [^3H]uridine uptake (0.1 μM–1 mM) was measured in (A) PK15NTD/ENT1 and (D) PK15NTD/ENT2 cells in the presence of various concentrations of compound 3c (0, 0.01, 0.1, 1 and 10 µM) (B,E) 1/V versus 1/[S] plots of each curve in (A) and (D), respectively (C,F) The plot of slopes of each line in (B) and (E), respectively, versus the concentration of compound 3c. Data are presented as mean ± SE of three experiments.

SMILES: Cc1cccc(Nc2nc(N)nc(CN3CCN(c4ccc(F)cc4)CC3)n2)c1 [Compound 3c]
- apparent Vmax of ENT2 (0.01 µM compound 3c): 1775 ± 76.83 pmol/mg protein/min
- apparent Vmax of ENT2 (0.1 µM compound 3c): 1295 ± 78.09 pmol/mg protein/min
- apparent Vmax of ENT2 (1 µM compound 3c): 918.6 ± 47.48 pmol/mg protein/min
- apparent Vmax of ENT2 (10 µM compound 3c): 534.6 ± 28.21 pmol/mg protein/min
- mode of inhibition of ENT2-mediated uridine transport (decreased Vmax, apparent Km unchanged): non-competitive inhibitor
- Ki (x-intercept of slopes versus concentration plot): 540 nM
